Experimental data from US20160166679A1, “METHOD OF TREATMENT USING FOLATE CONJUGATES AND TYROSINE KINASE INHIBITORS” (Purdue Research Foundation, priority 2014, published 2016).

Columns and labels:
Renca tumors = experiment: Sunitinib/folate-FITC combination therapy in Renca tumor-bearing mice; type: in vivo, mouse (Balb/c); details: FIG. 2
Description: In order to test the effect of combining Sunitinib with folate-targeted immunotherapy on tumor regression in a clinically representative model, the combination therapy was evaluated in Renca tumors, a mouse syngeneic kidney cancer cell line. Renca cells were maintained in a folate deficient cell culture medium and were selected for high folate receptor (FR) expression via multiple steps of cell sorting before being used in therapeutic studies. […] In turn, folate-FITC was used as a folate-hapten conjugate in the therapeutic studies. Female Balb/c mice aged 5-6 weeks were purchased from Harlan Laboratories in Indianapolis, Ind. After allowing one week for the mice to acclimate to their environment, they were vaccinated with 35 ug KLH-FITC in 50 ug GPI-0100 as adjuvant. […]
Several days before the third immunization, each mouse was injected subcutaneously on the left flank with 1×10^6 Renca cells in serum free medium. […] Treatment was initiated when tumors measured 50 mm^3. […] Tumor sizes were measured using digital calipers on alternating days, and tumor volumes were calculated using the equation ½ (L×W^2).
Once it was determined that a study needed to be suspended due to tumor size, all animals in the treatment groups were euthanized within 1-2 days and their tumors and spleens harvested for freezing and analysis by flow cytometry. […]

L1210A tumors = experiment: Tyrosine kinase inhibitor/folate-FITC combination therapy in L1210A tumor-bearing mice; type: in vivo, mouse (DBA/2); details: for tumor volume plot: position of the line at the longest duration (PBS control topmost): FIG. 16; for tumor volume plot: position of the line at the longest duration (PBS control second line from the bottom): FIG. 4
Description: The effect of the combination therapy strategy of Example 1 was evaluated on an alternative tumor type. The […] lymphocytic leukemia cell line was selected due to its high FR expression levels and its ability to grow in immune competent mice. Female DBA/2 mice (purchased from Harlan Laboratories in Indianapolis, Ind.) were used in this model. Mice were injected subcutaneously with 1×10^6 cells suspended in PBS on the left flank. […] Doses of 500 nmols/Kg of folate-FITC in phosphate buffered saline (PBS) by intraperitoneal injection were used in the folate-FITC alone treatment and the combination treatment.
All treatment groups were terminated when tumors in the PBS control group reached 1500 mm^3 and tumors and spleens were harvested for analysis. The excised tumors were digested using a collagenase cocktail and single cell suspensions were stained for the presence of FR, macrophages, MDSC, and T cells and analyzed by flow cytometry. The intra-tumoral vasculature content in mice treated with PBS, folate-FITC alone, sunitinib alone, or a combination of folate-FITC and sunitinib was imaged, as shown in FIG. 6. […] Portions of each tumor were also cryopreserved for sectioning and immunohistochemistry staining. Harvested spleens were also processed into single cell suspensions and analyzed for immune cell content. The percentage of CD4+ and CD8+ cytotoxic T cell in spleens of L1210A tumor-bearing mice treated with PBS, folate-FITC alone, sunitinib alone, or a combination of folate-FITC and sunitinib was determined, as shown in FIG. 5.
A second RTK inhibitor, axitinib, was studied in combination with folate-FITC on one of the tumor models. The combination therapy was tested in the L1210A lymphoma model following the experimental methods detailed in Example 2, using an axitinib concentration of 15 mg/Kg administered daily by oral gavage in place of sunitinib. The groups of mice were treated with PBS, folate-FITC alone (500 nmols/Kg of folate-FITC in phosphate buffered saline), axitinib alone, or a combination of folate-FITC and axitinib. Average weights of tumors and spleens of L1210A tumor-bearing mice are shown in FIGS. 17 and 18, respectively.

M109 tumors = experiment: Sunitinib/folate-FITC combination therapy in the M109 lung cancer model; type: in vivo, mouse (Balb/c); details: M109 tumor-bearing mice; FIG. 11
Description: Solid M109 lung tumors were established on the shoulders of KLH-FITC immunized Balb/c mice (5-6 weeks old from Harlan Laboratories, Indianapolis, Ind.) by injecting them subcutaneously with 1×10^6 of syngeneic M109 cells suspended in media containing 1% female Balb/c serum. The mice were treated according to the same dosing schedule described in Examples 1 and 2. The groups of mice were treated with PBS, folate-FITC alone (500 nmols/Kg of folate-FITC in phosphate buffered saline), sunitinib alone, or a combination of folate-FITC (500 nmols/Kg of folate-FITC in phosphate buffered saline) and sunitinib. Following completion of the study and termination of treatment, the treated animals were sacrificed and tumors and spleens were harvested for analysis as described in Example 2.

| Structure (SMILES) | tumor volume plot: position of the line at the longest duration (PBS control topmost) (Renca tumors) | tumor volume plot: position of the line at the longest duration (PBS control topmost) (L1210A tumors; axitinib study) | average weights of spleens (L1210A tumors; axitinib study, FIG. 18) | tumor volume plot: position of the line at the longest duration (PBS control second line from the bottom) (L1210A tumors; sunitinib study) | average weights of spleens (L1210A tumors; sunitinib study, FIG. 9) | tumor volume plot: position of the line at the longest duration (PBS control topmost) (M109 tumors) |
| --- | --- | --- | --- | --- | --- | --- |
| Nc1nc2ncc(CNc3ccc(C(=O)NC(CCC(=O)NCCNC(=S)Nc4ccc(-c5c6ccc(=O)cc-6oc6cc(O)ccc56)c(C(=O)O)c4)C(=O)O)cc3)nc2c(=O)[nH]1 (stereo not drawn) [folate-FITC] | second topmost line | second topmost line | swelling of the spleens | topmost line | swelling of the spleens | second line from the bottom |
| CCN(CC)CCNC(=O)c1c(C)[nH]c(/C=C2\C(=O)Nc3ccc(F)cc32)c1C [sunitinib] | second line from the bottom |  |  | second topmost line | swelling of the spleens | second topmost line |
| CNC(=O)c1ccccc1Sc1ccc2c(/C=C/c3ccccn3)n[nH]c2c1 [axitinib] |  | second line from the bottom | swelling of the spleens |  |  |  |
